Source: patent publication US20220184099A1, “METHODS OF USING OBETICHOLIC ACID” (Intercept Pharmaceuticals, Inc., priority 2018, published 2022)

Tests used:
[1] = Albumin, creatinine, platelets and INR levels in subjects of the clinical study; type: in vivo, human; conditions: for Albumin, % Change at Day 28 / Albumin, Day 28 / Creatinine, % Change at Day 28 / Creatinine, Day 28 / Platelets, % Change at Day 28 / Platelets, Day 28: median
Procedure: (§1) To evaluate safety, the PK and PD of OCA administered at 10 mg/day or 25 mg/day in subjects with compensated cirrhosis due to NASH was compared to healthy controls in a randomized, double blind, single center, Phase 3 study. Sixteen subjects with cirrhosis due to NASH and 8 healthy, age- and weight-matched, subjects were randomized in a 1:1 ratio to QD OCA 10 mg or OCA 25 mg for 28 days, according to FIG. 1 and Table 1. Extensive serial PK sampling over a 24-hour period was performed on Day 1 and Day 28 of dosing.

[2] = Adverse events, safety and tolerability of OCA 10 mg or 25 mg QD for 28 days; type: in vivo, human; conditions: for Total adverse events (AEs): both doses
Procedure: as §1

[3] = Liver biochemistry (ALT, AST, GGT, ALP, bilirubin) during 28 days of QD OCA; type: in vivo, human
Procedure: as §1

FXR = biological target: T1, FXR (Homo sapiens, UniProt Q96RI1); assay: PD markers of FXR activation (C4, FGF-19) during 28 days of QD OCA; type: in vivo
T1 construct: FGF-19 released from gut enterocytes (in response to FXR agonist) into portal circulation down regulates endogenous bile acid synthesis in the liver; endogenous in cells; host or cells: human study subjects in vivo (gut enterocytes, liver)
T1 sequence (Q96RI1 1-486): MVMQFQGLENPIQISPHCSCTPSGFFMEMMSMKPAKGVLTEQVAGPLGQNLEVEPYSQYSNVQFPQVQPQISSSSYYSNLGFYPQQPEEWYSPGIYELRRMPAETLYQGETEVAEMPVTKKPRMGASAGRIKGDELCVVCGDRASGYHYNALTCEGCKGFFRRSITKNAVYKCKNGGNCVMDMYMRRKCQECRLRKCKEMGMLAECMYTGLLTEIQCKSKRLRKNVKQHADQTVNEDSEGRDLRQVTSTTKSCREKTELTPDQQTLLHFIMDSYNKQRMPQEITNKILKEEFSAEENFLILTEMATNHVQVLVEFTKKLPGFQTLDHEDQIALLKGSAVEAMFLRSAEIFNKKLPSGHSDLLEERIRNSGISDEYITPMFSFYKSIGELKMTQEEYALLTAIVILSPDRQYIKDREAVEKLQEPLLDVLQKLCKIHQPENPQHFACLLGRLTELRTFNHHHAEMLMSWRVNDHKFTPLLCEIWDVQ
Source text: In one aspect, obeticholic acid may mediate its action primarily via FXR agonism, wherein FGF-19 released from gut enterocytes (in response to FXR agonist) into portal circulation down regulates endogenous bile acid synthesis in the liver. The present disclosure comprehends a method of measuring FXR agonist activity by, for example, measuring release of FGF-19 into the bloodstream or circulation of a patient administered with OCA. Levels of FGF-19 may be measured by methods known in the art, such as those described herein.
In some embodiments, the plasma levels of FGF-19, a marker of FXR activation, are determined using a qualified method and a validated method using an enzyme-linked immunosorbent assay (ELISA) method. The plasma concentrations of FGF-19 may be quantitated at predose and after administration of dose.
In some examples, a monoclonal antibody specific for FGF-19 is pre-coated onto a microplate. Standards, quality controls and samples are pipetted into the wells and any FGF-19 present is bound by the immobilized antibody. After washing away any unbound substances, an enzyme-linked polyclonal antibody specific for FGF-19 is added to the wells. Following a wash to remove any unbound antibody-enzyme reagent, a substrate solution is added to the wells and color develops in the proportion to the amount of FGF-19 bound in the initial step. The color development is stopped and the intensity of the color is measured. The calibration range of the method is 15.625 pg/ml to 1000 pg/ml for FGF-19 using a 100 μl aliquot of standard curve, quality control and sample. In some embodiments, no minimum required dilution is used. In other embodiments, samples may be subjected to a 3× minimum required dilution.
To evaluate safety, the PK and PD of OCA administered at 10 mg/day or 25 mg/day in subjects with compensated cirrhosis due to NASH was compared to healthy controls in a randomized, double blind, single center, Phase 3 study. […]

[4] = Plasma PK of total OCA (AUC0-24 h), serial sampling on Day 1 and Day 28 of dosing; type: in vivo, human
Procedure: as §1

[5] = both dose groups, throughout the 28-day study

Albumin levels ([1]; 28 days): No changes | INR ([1]; 28 days): No changes | Platelet levels ([1]; 28 days): No changes | Albumin, % Change at Day 28 ([1]; Healthy, 10 mg OCA (n = 4)): 2.3% | Albumin, Day 28 ([1]; Healthy, 10 mg OCA (n = 4)): 4.5 g/dL | Creatinine, % Change at Day 28 ([1]; Healthy, 10 mg OCA (n = 4)): −1.6% | Creatinine, Day 28 ([1]; Healthy, 10 mg OCA (n = 4)): 0.96 mg/dL | Platelets, % Change at Day 28 ([1]; Healthy, 10 mg OCA (n = 4)): 0.4% | Platelets, Day 28 ([1]; Healthy, 10 mg OCA (n = 4)): 262.0 10^9/L | Albumin, % Change at Day 28 ([1]; Healthy, 25 mg OCA (n = 4)): −4.0% | Albumin, Day 28 ([1]; Healthy, 25 mg OCA (n = 4)): 4.0 g/dL | Creatinine, % Change at Day 28 ([1]; Healthy, 25 mg OCA (n = 4)): 8.3% | Creatinine, Day 28 ([1]; Healthy, 25 mg OCA (n = 4)): 0.78 mg/dL | Platelets, % Change at Day 28 ([1]; Healthy, 25 mg OCA (n = 4)): 4.0% | Platelets, Day 28 ([1]; Healthy, 25 mg OCA (n = 4)): 261.0 10^9/L | Albumin, % Change at Day 28 ([1]; NASH CP-A, 10 mg OCA (n = 8)): −3.9% | Albumin, Day 28 ([1]; NASH CP-A, 10 mg OCA (n = 8)): 4.0 g/dL | Creatinine, % Change at Day 28 ([1]; NASH CP-A, 10 mg OCA (n = 8)): 4.3% | Creatinine, Day 28 ([1]; NASH CP-A, 10 mg OCA (n = 8)): 0.88 mg/dL | Platelets, % Change at Day 28 ([1]; NASH CP-A, 10 mg OCA (n = 8)): −9.7% | Platelets, Day 28 ([1]; NASH CP-A, 10 mg OCA (n = 8)): 101.5 10^9/L | Albumin, % Change at Day 28 ([1]; NASH CP-A, 25 mg OCA (n = 8)): −6.5% | Albumin, Day 28 ([1]; NASH CP-A, 25 mg OCA (n = 8)): 4.0 g/dL | Creatinine, % Change at Day 28 ([1]; NASH CP-A, 25 mg OCA (n = 8)): 0.8% | Creatinine, Day 28 ([1]; NASH CP-A, 25 mg OCA (n = 8)): 0.87 mg/dL | Platelets, % Change at Day 28 ([1]; NASH CP-A, 25 mg OCA (n = 8)): −2.0% | Platelets, Day 28 ([1]; NASH CP-A, 25 mg OCA (n = 8)): 155.5 10^9/L | PD effects (FXR; both doses of OCA): favorable PD effects | C4 (FXR; both dosing groups): suppression | FGF-19 (FXR; both dosing groups): activation | Plasma exposure of total OCA in subjects with cirrhosis due to NASH relative to healthy subjects ([4]; daily OCA 10 mg and 25 mg): higher | Hepatic exposure of OCA ([4]; despite increased systemic exposure, FIGS. 11A and 11B): remain nominal
Compound: CC[C@H]1[C@@H](O)[C@@H]2[C@H](CC[C@]3(C)[C@@H]([C@H](C)CCC(=O)O)CC[C@@H]23)[C@@]2(C)CC[C@@H](O)C[C@@H]12 [OCA, 3α,7α-dihydroxy-6α-ethyl-5β-cholan-24-oic acid]
Subjects who discontinued treatment due to elevated bilirubin levels ([2]; NASH, OCA 25 mg, advanced disease with portal hypertension and history of hyperbilirubinemia, discontinued on Day 25): One | Liver-related adverse events reported ([2]; all subjects): one | Serious adverse events ([2]; all subjects): No serious adverse events were observed | Severity of all AEs ([2]; all subjects, no trend for liver related AEs): mild or moderate | Overall safety and tolerability ([2]; daily OCA at 10 mg and 25 mg): generally safe and well tolerated | Subjects experiencing adverse events ([2]; healthy subjects on 10 mg): 3 subjects | Subjects experiencing adverse events ([2]; healthy subjects on 25 mg): 2 subjects | Total adverse events (AEs) ([2]; healthy subjects): 5 AEs | Subjects experiencing adverse events ([2]; healthy subjects, both doses (of 8)): 5 subjects | Subjects experiencing adverse events ([2]; subjects with NASH on 10 mg): 2 subjects | Subjects experiencing adverse events ([2]; subjects with NASH on 25 mg): 4 subjects | Total adverse events (AEs) ([2]; subjects with NASH): 13 AEs | Subjects experiencing adverse events ([2]; subjects with NASH, both doses (of 16)): Six | Subjects reporting mild or moderate pruritus ([2]; subjects with NASH, no relationship to dose): Four | Time for bilirubin levels to return to normal after discontinuation of OCA ([2]; the one NASH subject on 25 mg who discontinued): 1 days | Bilirubin levels (direct and total) ([3]; 10 mg and 25 mg groups, 28 days): no apparent trend | ALP ([3]; OCA 25 mg group, mostly driven by subjects with elevated ALP at Baseline): moderate increase | ALT [3, 5]: improvements | AST [3, 5]: improvements | GGT [3, 5]: improvements
